{
  "source": "patent US8008525B2",
  "about": "“Receptor function regulating agent” (Takeda Pharmaceutical Company Limited, priority 2003, dated 2011)",
  "key": {"human 14273 receptor": {"target": "T1, human 14273 receptor (Homo sapiens, UniProt Q5NUL3)", "T1 construct": "expressed in transfected cells", "T1 sequence (Q5NUL3 1-361)": "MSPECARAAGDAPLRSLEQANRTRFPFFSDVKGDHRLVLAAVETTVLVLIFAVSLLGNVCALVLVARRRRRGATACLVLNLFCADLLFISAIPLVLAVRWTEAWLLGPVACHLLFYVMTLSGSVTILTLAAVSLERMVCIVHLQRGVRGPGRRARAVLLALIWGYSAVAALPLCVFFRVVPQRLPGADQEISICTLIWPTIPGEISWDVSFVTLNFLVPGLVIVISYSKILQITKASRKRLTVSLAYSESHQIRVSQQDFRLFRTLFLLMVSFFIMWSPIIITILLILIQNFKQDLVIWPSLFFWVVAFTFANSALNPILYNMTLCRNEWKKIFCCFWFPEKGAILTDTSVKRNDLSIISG", "test": "Test Example 1: regulating effect for 14273 receptor function (agonist effect), change in intracellular calcium level by FLIPR", "format": "cell-based", "settings": "CHO cell line (No. 104) expressing human 14273 receptor, change of fluorescent intensity after 35 seconds", "procedure": "CHO cell lines (No. 104) in which a human 14273 receptor has expressed was diluted to contain 3×10^4/100 μl cells, and dispensed in Black walled 96-well plate (Costar) at a density of 100 μl/well, followed by culturing overnight in a CO2 incubator. A change in intracellular calcium level was measured using FLIPR (Molecular Device). The method is described as below. 50 μg of Fluo-3AM (DOJIN) was dissolved in 21 μl of DMSO (DOJIN) and an equal volume of 20% pluronic acid (Molecular Probes) was added thereto, followed by mixing them. The mixture was added to 10.6 ml of the assay buffer [which is prepared by adding 10 ml of a solution, which is prepared by adding 20 ml of 1 M HEPES (pH 7.4, DOJIN) to 1 L of HBSS (Invitrogen), dissolving 710 mg of probenecid (Sigma) in 5 ml of 1 N NaOH, and further adding 5 ml of the above-mentioned HBSS/HEPES solution and mixing it.] supplemented with 105 μl of fetal bovine serum to prepare a fluorescent dye solution. The medium of the cell plate was removed, the fluorescent dye solution was dispensed in 100 μl each per well. The culturing was performed in a CO2 incubator for 1 hour to incorporate the fluorescent dye into the cells. The cells after culturing were washed with the assay buffer. The compounds to be added to the cells were diluted to each concentration with a buffer solution to which CHAPS (DOJIN) was added in 0.015%, and dispensed in a plate for the test sample. Following the pretreatment above, a change in intracellular calcium level after addition of the compound was determined with FLIPR to investigate the agonist effect. An EC50 value was calculated from dose-reaction curve using the change of fluorescent intensity after 35 seconds from the reaction initiation."}, "AtT-20 cells": {"system": "AtT-20 cells", "test": "Test Example 3: suppression of CRF-induced ACTH secretion in AtT-20 cells", "format": "cell-based, mouse", "settings": "10 μM of compound; 100 nM CRF; 90 minutes; adherent AtT-20 substrain", "procedure": "Influence on ACTH secretion from mouse pituitary corticotrophic cell line AtT-20 cells was analyzed. […] This adherent AtT-20 cell substrain was cultured on a poly-D-lysine-coated 48-well plate at a density of 1×10^5 cells/well for 2 nights, which was provided for assay. […] After washing the cells once with this buffer, a predetermined concentration of the compound was added thereto, followed by addition of a buffer containing 100 nM of a corticotropin-releasing factor (CRF), and followed by culturing at 37° C. for 90 minutes in a CO2 incubator. Then, the plate was gently stirred, then centrifuged at 1200 rpm for 5 minutes at room temperature and the buffer was recovered from the intermediate layer. The ACTH concentration was determined using an ACTH assay kit (Mitsubishi Medical, ACTH IRMA “Yuka”)."}},
  "data": [
    {"smiles": "O=C(O)CCc1ccc(OCc2cccc(Oc3ccc(F)cc3)c2)c(F)c1", "note": "[Example 161, 3-(3-fluoro-4-{[3-(4-fluorophenoxy)benzyl]oxy}phenyl)propanoic acid]", "values": [
      {"measurement": "EC50", "setting": "human 14273 receptor", "value": "≤ 10", "unit": "µM"},
      {"measurement": "lowering of the amount of ACTH secretion increased by CRF stimulation", "setting": "AtT-20 cells", "value": 49, "unit": "%"}
    ]}
  ]
}
